Assay type in all cases: biochemical
The target in one assay is T1, MMP-1 (Homo sapiens, UniProt P03956).
T1 construct: purchased R&D Systems 901-MP
T1 sequence (P03956 100-469): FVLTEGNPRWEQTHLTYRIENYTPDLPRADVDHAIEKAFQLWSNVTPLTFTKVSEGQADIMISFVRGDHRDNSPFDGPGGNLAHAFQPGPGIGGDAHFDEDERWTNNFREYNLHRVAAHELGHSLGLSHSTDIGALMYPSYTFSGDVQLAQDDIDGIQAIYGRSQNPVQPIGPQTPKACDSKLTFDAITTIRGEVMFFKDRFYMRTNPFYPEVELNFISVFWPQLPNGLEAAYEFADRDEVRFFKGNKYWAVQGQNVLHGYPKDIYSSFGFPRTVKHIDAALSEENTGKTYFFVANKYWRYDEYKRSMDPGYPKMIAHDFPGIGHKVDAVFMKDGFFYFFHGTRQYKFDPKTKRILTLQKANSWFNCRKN
Briefly: In vitro MMP-1 inhibition test. In outline: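 APMA-activated recombinant enzyme (e.g. 2 nM final) in 50 mM Tris/HCl pH 7.5, 10 mM CaCl2, 150 mM NaCl, 0.05% Brij-35 with compound in DMSO (e.g. 1 nM–30 μM). Quenched Mca-Pro-Leu-Gly-Leu-Dpa(Dnp)-Ala-Arg-NH2 substrate (e.g. 10 μM) started reaction; fluorescence (ex 320/em 410 nm) followed e.g. 120 min at 32° C; IC50 at 50% signal.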

For another assay, the target named is T2, MMP-8 (Homo sapiens, UniProt P22894).
T2 construct: purchased R&D Systems 908-MP
Briefly: In vitro MMP-8 inhibition test. In short, it runs like this: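 APMA-activated recombinant MMP-8 (final e.g. 0.5 nM) preincubated with compound in DMSO (e.g. 1 nM–30 μM) in 50 mM Tris/HCl pH 7.5, 10 mM CaCl2, 150 mM NaCl, 0.05% Brij-35. Reaction started with quenched Mca-Pro-Leu-Gly-Leu-Dpa(Dnp)-Ala-Arg-NH2 substrate (e.g. 10 μM); fluorescence (ex 320/em 410 nm) followed e.g. 120 min at 32° C; IC50 at 50% signal.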

A further assay has as its target T3, MMP-3 (Homo sapiens, UniProt P08254).
T3 construct: purchased R&D Systems 513-MP
Briefly: In vitro MMP-3 inhibition test. In outline:
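APMA-activated recombinant MMP-3 (e.g. 2 nM final) preincubated with compound in 50 mM Tris/HCl pH 7.5, 10 mM CaCl2, 150 mM NaCl, 0.05% Brij-35; quenched Mca/Dnp peptide substrate (e.g. 10 μM) started the reaction. Fluorescence (ex 320/em 410 nm) followed e.g. 120 min at 32° C; IC50 at 50% signal.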

The target of another assay is T4, MMP-7 (Homo sapiens, UniProt P09237).
T4 construct: purchased R&D Systems 907-MP
T4 sequence (P09237 95-267): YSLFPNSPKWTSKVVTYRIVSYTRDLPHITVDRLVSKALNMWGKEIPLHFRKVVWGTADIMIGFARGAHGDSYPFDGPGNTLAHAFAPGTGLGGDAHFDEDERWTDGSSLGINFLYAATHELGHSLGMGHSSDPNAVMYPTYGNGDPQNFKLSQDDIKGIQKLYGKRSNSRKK
Description: In vitro MMP-7 inhibition test. In short, it runs like this: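 APMA-activated recombinant MMP-7 (e.g. 0.5 nM final) in Tris/HCl pH 7.5 with CaCl2, NaCl and Brij-35; started with quenched fluorogenic Mca-PLGL-Dpa(Dnp)-AR-NH2 substrate (e.g. 10 μM final). Fluorescence (ex 320/em 410 nm) followed e.g. over 120 min at 32° C; IC50 is the concentration giving 50% signal.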

T3 sequence (P08254 100-477): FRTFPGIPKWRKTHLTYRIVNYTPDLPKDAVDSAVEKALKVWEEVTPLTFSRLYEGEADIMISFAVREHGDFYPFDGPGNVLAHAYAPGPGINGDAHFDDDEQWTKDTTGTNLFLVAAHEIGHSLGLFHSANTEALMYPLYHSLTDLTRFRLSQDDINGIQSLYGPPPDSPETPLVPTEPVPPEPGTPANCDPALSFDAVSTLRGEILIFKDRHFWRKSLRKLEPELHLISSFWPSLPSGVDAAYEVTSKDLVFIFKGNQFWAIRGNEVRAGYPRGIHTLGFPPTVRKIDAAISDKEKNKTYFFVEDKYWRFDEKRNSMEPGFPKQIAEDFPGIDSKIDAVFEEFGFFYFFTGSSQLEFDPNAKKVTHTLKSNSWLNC
T2 sequence (P22894 101-467): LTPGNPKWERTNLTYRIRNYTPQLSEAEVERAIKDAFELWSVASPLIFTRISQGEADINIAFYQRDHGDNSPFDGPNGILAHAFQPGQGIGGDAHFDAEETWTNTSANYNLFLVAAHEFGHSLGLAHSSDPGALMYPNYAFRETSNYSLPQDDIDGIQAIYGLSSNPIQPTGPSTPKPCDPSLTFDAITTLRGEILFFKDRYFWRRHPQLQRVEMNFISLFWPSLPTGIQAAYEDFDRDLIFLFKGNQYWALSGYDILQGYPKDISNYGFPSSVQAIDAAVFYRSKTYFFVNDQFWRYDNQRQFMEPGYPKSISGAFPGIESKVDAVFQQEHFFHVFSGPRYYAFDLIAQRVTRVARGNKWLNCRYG

As a reminder, the IC50 is the concentration that inhibits the measured activity by half. A lower IC50 goes with inhibition by little substance. For `O=C(O)[C@H]1[C@H](Cn2nnc3ccc(C(F)(F)F)cc3c2=O)CC[C@@H]1C(=O)c1ccc(OCc2cccc(C(F)(F)F)c2)cc1` (racemic) [Example 18, (+/−)-(1RS,2SR,5RS)-2-{[4-Oxo-6-(trifluoromethyl)-1,2,3-benzotriazin-3(4H)-yl]methyl}-5-(4-{[3-(trifluoromethyl)benzyl]oxy}benzoyl)cyclopentanecarboxylic acid], the half-inhibitory concentration (IC50) was more than 40000 nM against MMP-1, 61 nM against MMP-8, 1000 nM at MMP-3 and 910 nM on MMP-7.
